According to patent US12077503B2, “Substituted cyclic amides and their use as herbicides” (FMC CORPORATION, priority 2015, dated 2024):

What was measured:
Format in all cases: in vivo
[1] = system: Kochia (Kochia scoparia); assay: Test A preemergence; settings: Bassia scoparia, pre-emergence, 240 h
Outline: (§1)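 Greenhouse, ~10 d after spray; visual injury vs untreated controls, 0 = no effect, 100 = complete control. Preemergence: directed soil spray over planted seeds. Postemergence: plants 2–10 cm, 1–2 leaf stage. Loam/sand blend. Compound in non-phytotoxic solvent with surfactant.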

[2] = system: ryegrass, Italian (Italian ryegrass, Lolium multiflorum); assay: Test A preemergence; settings: Lolium multiflorum, pre-emergence, 240 h
Outline: as §1

[3] = system: ragweed (common ragweed, Ambrosia elatior); assay: Test A preemergence; settings: Ambrosia artemisiifolia, pre-emergence, 240 h
Outline: as §1

[4] = system: barnyardgrass (Echinochloa crus-galli); assay: Test A preemergence; settings: Echinochloa crus-galli, pre-emergence, 240 h
Outline: as §1

[5] = system: giant foxtail (Setaria faberii); assay: Test A preemergence; settings: Setaria faberi, pre-emergence, 240 h
Outline: as §1

[6] = system: pigweed (Amaranthus retroflexus); assay: Test A preemergence; settings: Amaranthus retroflexus, pre-emergence, 240 h
[7] = system: barnyardgrass (Echinochloa crus-galli); assay: Test B flooded paddy test; settings: Echinochloa crus-galli, 250 g ai/ha, Flood; 0 to 100 scale where 0 is no effect and 100 is complete control; read-out: Barnyardgrass plant response rating
Outline: (§2)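 Flooding to 3 cm over soil accompanied treatment, which consisted of adding compound to the standing water around 2-leaf plants; depth was then maintained. Visual assessment versus controls followed at 13 to 15 d (scale 0–100, 0 meaning no effect).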

[8] = system: rice (Oryra sativa); assay: Test B flooded paddy test; settings: Oryza sativa, 250 g ai/ha, Flood; 0 to 100 scale where 0 is no effect and 100 is complete control; read-out: Rice plant response rating
Outline: as §2

[9] = system: ducksalad (Heteranthera limosa); assay: Test B flooded paddy test; settings: Heteranthera limosa, 250 g ai/ha, Flood; 0 to 100 scale where 0 is no effect and 100 is complete control; read-out: Ducksalad plant response rating
Outline: as §2

[10] = system: sedge, umbrella (small-flower umbrella sedge, Cyperus difformis); assay: Test B flooded paddy test; settings: Cyperus difformis, 250 g ai/ha, Flood; 0 to 100 scale where 0 is no effect and 100 is complete control; read-out: Sedge, Umbrella plant response rating
Outline: as §2

[11] = system: wheat (Triticum aestivum); assay: Test A postemergence; settings: Triticum aestivum, post-emergence, 240 h, read-out: Plant response rating, Wheat
Outline: as §1

[12] = system: corn (Zea mays); assay: Test A postemergence; settings: Zea mays, post-emergence, 240 h
Outline: as §1

[13] = system: Kochia (Kochia scoparia); assay: Test A postemergence; settings: Bassia scoparia, post-emergence, 240 h, read-out: Plant response rating, Kochia
Outline: as §1

[14] = system: Galium (catchweed bedstraw, Galium aparine); assay: Test A postemergence; settings: Galium, post-emergence, 240 h, read-out: Plant response rating, Galium
Outline: as §1

[15] = system: ryegrass, Italian (Italian ryegrass, Lolium multiflorum); assay: Test A postemergence; settings: Lolium multiflorum, post-emergence, 240 h, read-out: Plant response rating, Ryegrass, Italian
Outline: as §1

[16] = system: ragweed (common ragweed, Ambrosia elatior); assay: Test A postemergence; settings: Ambrosia artemisiifolia, post-emergence, 240 h, read-out: Plant response rating, Ragweed
Outline: as §1

[17] = system: barnyardgrass (Echinochloa crus-galli); assay: Test A postemergence; settings: Echinochloa crus-galli, post-emergence, 240 h, read-out: Plant response rating, Barnyardgrass
Outline: as §1

[18] = system: giant foxtail (Setaria faberii); assay: Test A postemergence; settings: Setaria faberi, post-emergence, 240 h, read-out: Plant response rating, Foxtail, Giant
Outline: as §1

[19] = system: pigweed (Amaranthus retroflexus); assay: Test A postemergence; settings: Amaranthus retroflexus, post-emergence, 240 h, read-out: Plant response rating, Pigweed
Outline: as §1

[20] = system: blackgrass (Alopecurus myosuroides); assay: Test A postemergence; settings: Alopecurus myosuroides, post-emergence, 240 h, read-out: Plant response rating, Blackgrass
Outline: as §1

[21] = 125 g ai/ha, Postemergence, visual injury after approximately 10 d, 0 to 100 scale where 0 is no effect and 100 is complete control
[22] = 500 g ai/ha, postemergence, visual injury, 0 to 100 scale (0 no effect, 100 complete control), approx. 10 d

CSc1ccccc1NC(=O)[C@H]1C(=O)N(C)C[C@@H]1c1ccc(C)c(Cl)c1 [Compound 1015]
pest or weed control at 125 g/ha ([1]; 125 g ai/ha, Preemergence, visual injury rating after approximately 10 d, read-out: Kochia plant response rating (0 to 100 scale, 0 is no effect, 100 is complete control)): 0%
pest or weed control at 500 g/ha ([1]; 500 g ai/ha, preemergence, visual injury rating about 10 d after treatment, 0 to 100 scale (0 no effect, 100 complete control), read-out: Kochia plant response rating): 60%
pest or weed control at 125 g/ha ([2]; 125 g ai/ha, Preemergence, visual injury rating after approximately 10 d, read-out: Ryegrass, Italian plant response rating (0 to 100 scale, 0 is no effect, 100 is complete control)): 40%
pest or weed control at 500 g/ha ([2]; 500 g ai/ha, preemergence, visual injury rating about 10 d after treatment, 0 to 100 scale (0 no effect, 100 complete control), read-out: Ryegrass, Italian plant response rating): 90%
pest or weed control at 125 g/ha ([3]; 125 g ai/ha, Preemergence, visual injury rating after approximately 10 d, read-out: Ragweed plant response rating (0 to 100 scale, 0 is no effect, 100 is complete control)): 0%
pest or weed control at 500 g/ha ([3]; 500 g ai/ha, preemergence, visual injury rating about 10 d after treatment, 0 to 100 scale (0 no effect, 100 complete control), read-out: Ragweed plant response rating): 50%
pest or weed control at 125 g/ha ([4]; 125 g ai/ha, Preemergence, visual injury rating after approximately 10 d, read-out: Barnyardgrass plant response rating (0 to 100 scale, 0 is no effect, 100 is complete control)): 90%
pest or weed control at 500 g/ha ([4]; 500 g ai/ha, preemergence, visual injury rating about 10 d after treatment, 0 to 100 scale (0 no effect, 100 complete control), read-out: Barnyardgrass plant response rating): 90%
pest or weed control at 125 g/ha ([5]; 125 g ai/ha, Preemergence, visual injury rating after approximately 10 d, read-out: Foxtail, Giant plant response rating (0 to 100 scale, 0 is no effect, 100 is complete control)): 90%
pest or weed control at 500 g/ha ([5]; 500 g ai/ha, preemergence, visual injury rating about 10 d after treatment, 0 to 100 scale (0 no effect, 100 complete control), read-out: Foxtail, Giant plant response rating): 90%
pest or weed control at 125 g/ha ([6]; 125 g ai/ha, Preemergence, visual injury rating after approximately 10 d, read-out: Pigweed plant response rating (0 to 100 scale, 0 is no effect, 100 is complete control)): 0%
pest or weed control at 500 g/ha ([6]; 500 g ai/ha, preemergence, visual injury rating about 10 d after treatment, 0 to 100 scale (0 no effect, 100 complete control), read-out: Pigweed plant response rating): 40%
pest or weed control at 250 g/ha [7]: 95%
pest or weed control at 250 g/ha [8]: 40%
pest or weed control at 250 g/ha [9]: 90%
pest or weed control at 250 g/ha [10]: 35%
plant injury at 125 g/ha [11, 21]: 0%
plant injury at 500 g/ha [11, 22]: 60%
Corn plant response rating (crop injury, 0 = no effect, 100 = complete kill) at 125 g/ha [12, 21]: 70%
Corn plant response rating (crop injury, 0 = no effect, 100 = complete kill) at 500 g/ha [12, 22]: 90%
pest or weed control at 125 g/ha [13, 21]: 0%
pest or weed control at 500 g/ha [13, 22]: 50%
pest or weed control at 125 g/ha [14, 21]: 40%
pest or weed control at 500 g/ha [14, 22]: 70%
pest or weed control at 125 g/ha [15, 21]: 30%
pest or weed control at 500 g/ha [15, 22]: 50%
pest or weed control at 125 g/ha [16, 21]: 0%
pest or weed control at 500 g/ha [16, 22]: 40%
pest or weed control at 125 g/ha [17, 21]: 90%
pest or weed control at 500 g/ha [17, 22]: 90%
pest or weed control at 125 g/ha [18, 21]: 80%
pest or weed control at 500 g/ha [18, 22]: 80%
pest or weed control at 125 g/ha [19, 21]: 30%
pest or weed control at 500 g/ha [19, 22]: 50%
pest or weed control at 125 g/ha [20, 21]: 0%
pest or weed control at 500 g/ha [20, 22]: 50%
